Reference: the METLIN SMRT retention time set (Domingo-Almenara et al. 2019)

Assay: gradient 5% acetonitrile 3 min, to 50% in 2 min, to 85% in 15 min, held 3 min, 100 µL/min
Conditions: column: Zorbax Extend-C18 2.1 x 50 mm; eluents: water / acetonitrile, 0.1% formic acid
How it was run: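 Values are retention times taken from adduct peaks that software picked and an analyst inspected. The pure standards were run as mixtures of ~100 molecules on HPLC linked to a quadrupole time-of-flight mass spectrometer, in positive and negative ionization mode. A Zorbax Extend-C18 column (2.1 × 50 mm, 1.8 μm) was used at 100 μL/min with water and acetonitrile, each including 0.1% formic acid.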

**Q.** For `Cc1ccc(-c2csc(NC(=O)c3c(-c4ccc(F)cc4)nc4n3CCS4(=O)=O)n2)cc1`, which RP-LC retention time is on record?
**A.** 1070 s

**Q.** Which RP-LC retention time does the source give for `CCN(Cc1ccc(F)cc1)Cc1cc(=O)c2cccc(F)c2[nH]1` here?
**A.** 594 s

**Q.** Which RP-LC retention time does the source give for `COc1ccc(OC)c(NC(=O)CSc2cc(N3CCN(c4ccccc4F)CC3)ncn2)c1` here?
**A.** 1180 s

**Q.** With `CC(C)NC(=O)Cc1nnc2cc(-c3nc(C4CC4)no3)ccn12` as the compound, how does the RP-LC retention time read?
**A.** 777 s

**Q.** Which RP-LC retention time does the source give for `COc1ccc(C(=O)Nc2cccn3nc(C4CC4)nc23)cc1` here?
**A.** 839 s

**Q.** Which RP-LC retention time does the source give for `CCCNC(=O)N1CCCN(C2=NS(=O)(=O)C(c3ccccc3)=C2C)CC1` here?
**A.** 735 s

**Q.** With `COc1ccccc1NC(=O)N1CCN(CCn2c(C(F)(F)F)nc3cccnc32)CC1` as the compound, how does the RP-LC retention time read?
**A.** 630 s

**Q.** Which RP-LC retention time does the source give for `Cn1nc(C(=O)N2CCN(c3cc(-c4ccccc4)[nH]n3)CC2)c2ccccc21` here?
**A.** 805 s

**Q.** With `CCc1ccc(S(=O)(=O)N2CCC(N3CCN(Cc4ccccc4)C(=O)C3=O)CC2)cc1` as the compound, how does the RP-LC retention time read?
**A.** 859 s

**Q.** For `CCOc1ccc(N2CC(c3nc(-c4ccccc4F)no3)CC2=O)cc1` (stereo not drawn), which RP-LC retention time is on record?
**A.** 967 s

**Q.** With `CC(C)n1cnc2cc(CNC(=O)c3ccc(F)cc3F)ccc21` as the compound, how does the RP-LC retention time read?
**A.** 623 s

**Q.** For `CC(C)c1noc(C2CCCCN2Cc2nc(-c3cccnc3)no2)n1` (stereo not drawn), which RP-LC retention time is on record?
**A.** 832 s

**Q.** Which RP-LC retention time does the source give for `CCn1ccc(C(=O)Nc2ccc3c(c2)Sc2ncccc2C(=O)N3C)n1` here?
**A.** 698 s

**Q.** Which RP-LC retention time does the source give for `O=C(c1ccc2c(c1)OCO2)N1CCN(c2nnc3ccccn23)CC1` here?
**A.** 616 s

**Q.** Which RP-LC retention time does the source give for `CN(C)S(=O)(=O)c1ccc2c(c1)cc(C(=O)NCCc1c[nH]c3ccccc13)n2C` here?
**A.** 895 s

**Q.** For `Cc1nnsc1C(=O)NCc1c(F)cccc1Cl`, which RP-LC retention time is on record?
**A.** 861 s

**Q.** With `Cc1noc(CNC(=O)c2cc(-c3cccs3)[nH]n2)n1` as the compound, how does the RP-LC retention time read?
**A.** 641 s

**Q.** Which RP-LC retention time does the source give for `CCOCCCNC(=O)Cn1c(=O)c2cccn2c2ccc(F)cc21` here?
**A.** 712 s

**Q.** Which RP-LC retention time does the source give for `COc1ccc(NC(=O)CN2C(=O)c3ccccc3Sc3ncccc32)cc1` here?
**A.** 758 s

**Q.** With `CCC1CCCCN1S(=O)(=O)c1cc(-c2nnc(C)o2)co1` (stereo not drawn) as the compound, how does the RP-LC retention time read?
**A.** 857 s

**Q.** For `CCOc1ccc(NC(=O)N2CCCC(C)(C(=O)NCc3ccccc3C)C2)cc1` (stereo not drawn), which RP-LC retention time is on record?
**A.** 855 s

**Q.** With `O=C(Cn1cnc2nc3c(cc2c1=O)CCCC3)N1CCN(c2cccc(C(F)(F)F)c2)CC1` as the compound, how does the RP-LC retention time read?
**A.** 881 s

**Q.** For `O=C(c1ccco1)N1[C@H]2CC[C@@H]1c1cnc(-c3ccc(F)cc3)nc1C2`, which RP-LC retention time is on record?
**A.** 858 s

**Q.** Which RP-LC retention time does the source give for `COc1ccc(-c2nnc(Cc3nc(-c4ccccc4C)no3)o2)cc1` here?
**A.** 1010 s

**Q.** For `O=C(COc1ccc2c(-c3ccccc3)cc(=O)oc2c1)N1CCC2(O)CCCCC2C1` (stereo not drawn), which RP-LC retention time is on record?
**A.** 845 s

**Q.** With `Cc1noc(-c2cccn2Cc2cccc(Cl)c2)n1` as the compound, how does the RP-LC retention time read?
**A.** 1110 s

**Q.** For `CC(=O)N1CCc2sc(C(=O)N3CCN(c4ccccc4F)CC3)cc2C1`, which RP-LC retention time is on record?
**A.** 784 s

**Q.** For `Cc1ccc(CNC(=O)Cn2cccc2-c2nnc(-c3ccccc3)o2)o1`, which RP-LC retention time is on record?
**A.** 882 s

**Q.** With `CCOc1ccc(-n2nnnc2CNS(=O)(=O)c2ccc(CC)s2)cc1` as the compound, how does the RP-LC retention time read?
**A.** 949 s

**Q.** With `COc1ccccc1-c1noc(C2CCCN2C(=O)c2cccc(F)c2)n1` (stereo not drawn) as the compound, how does the RP-LC retention time read?
**A.** 856 s

**Q.** With `CCc1nnc([C@@H]2CC(F)(F)CN2C(=O)c2ccc3nc[nH]c3c2)o1` as the compound, how does the RP-LC retention time read?
**A.** 540 s

**Q.** With `COc1ccc(CNS(=O)(=O)c2ccc(-c3nnc(C4CCC4)o3)o2)cc1` as the compound, how does the RP-LC retention time read?
**A.** 873 s

**Q.** For `Cc1nncn1C1CCN(S(=O)(=O)c2ccc(CC(C)C)cc2)CC1`, which RP-LC retention time is on record?
**A.** 822 s

**Q.** For `CNCCc1cnc(CCC(c2ccccc2)c2ccccc2)[nH]1`, which RP-LC retention time is on record?
**A.** 608 s

**Q.** For `Cc1ccc(NC(=O)C2CCCN(c3ncnc4c3oc3ccccc34)C2)cc1C` (stereo not drawn), which RP-LC retention time is on record?
**A.** 868 s

**Q.** For `CCC(O)c1nc2ccccc2n1CC(=O)N1CCOCC1` (stereo not drawn), which RP-LC retention time is on record?
**A.** 566 s

**Q.** With `CCOC(=O)c1ccccc1NC(=O)Cn1nc2n(c1=O)CCCCC2` as the compound, how does the RP-LC retention time read?
**A.** 821 s

**Q.** With `COc1ccc2c(c1)c(CN1CCC(C(=O)NCCN3CCCCC3)CC1)cn2C` as the compound, how does the RP-LC retention time read?
**A.** 562 s
